Measured values as given in patent publication US9290485B2, “N-((6-amino-pyridin-3-yl)methyl)-heteroaryl-carboxamides” (NOVARTIS AG, priority 2010, dated 2016).

biological target: human plasma kallikrein (Homo sapiens (Human), UniProt P03952); conditions: human plasma kallikrein 25 pM, substrate 0.5 uM, 1 hour pre-incubation at room temperature, read at t=60 min
Sequence (P03952 whole entry, looked up): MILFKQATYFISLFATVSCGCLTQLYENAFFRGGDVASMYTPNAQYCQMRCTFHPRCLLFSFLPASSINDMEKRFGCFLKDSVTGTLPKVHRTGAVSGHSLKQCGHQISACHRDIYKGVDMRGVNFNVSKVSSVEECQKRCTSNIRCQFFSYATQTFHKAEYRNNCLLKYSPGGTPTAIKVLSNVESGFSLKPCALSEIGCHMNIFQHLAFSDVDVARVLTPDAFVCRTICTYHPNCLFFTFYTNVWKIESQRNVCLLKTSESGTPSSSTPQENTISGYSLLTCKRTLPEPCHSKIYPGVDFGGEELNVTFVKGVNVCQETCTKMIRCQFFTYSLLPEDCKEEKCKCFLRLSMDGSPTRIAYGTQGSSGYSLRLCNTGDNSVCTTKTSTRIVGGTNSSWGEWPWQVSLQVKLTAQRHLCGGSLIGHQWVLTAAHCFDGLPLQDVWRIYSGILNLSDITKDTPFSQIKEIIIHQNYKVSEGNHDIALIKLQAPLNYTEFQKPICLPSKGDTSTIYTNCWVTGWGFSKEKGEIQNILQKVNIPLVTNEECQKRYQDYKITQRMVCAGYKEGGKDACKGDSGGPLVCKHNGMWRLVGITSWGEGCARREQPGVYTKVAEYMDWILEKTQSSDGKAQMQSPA
Sequence (P03952 whole entry partner, looked up): as the sequence (P03952 whole entry, looked up) above

Structure (SMILES) | IC50
Cc1cc(N)nc(C)c1CNC(=O)c1cn(Cc2ccccc2)nc1C [Example 49, N-((6-amino-2,4-dimethylpyridin-3-yl)methyl)-1-benzyl-3-methyl-1H-pyrazole-4-carboxamide] | 679 nM
Cc1cc(N)nc(C)c1CNC(=O)c1cc(C)n(C(C)c2ccccc2)c1C (stereo not shown) [Example 51, N-((6-amino-2,4-dimethylpyridin-3-yl)methyl)-2,5-dimethyl-1-(1-phenylethyl)-1H-pyrrole-3-carboxamide] | 7000 nM
Cc1cc(N)nc(C)c1CNC(=O)c1cc(S(=O)(=O)N2CCOCC2)c[nH]1 [Example 52, N-((6-amino-2,4-dimethylpyridin-3-yl)methyl)-4-(morpholinosulfonyl)-1H-pyrrole-2-carboxamide] | 5700 nM
Cc1cc(N)nc(C)c1CNC(=O)c1cn(Cc2c(F)cccc2F)nn1 [Example 53, N-((6-amino-2,4-dimethylpyridin-3-yl)methyl)-1-(2,6-difluorobenzyl)-1H-1,2,3-triazole-4-carboxamide] | 3600 nM
Cc1cc(N)nc(C)c1CNC(=O)c1cn(Cc2cccc(C#N)c2)nn1 [Example 54, N-((6-amino-2,4-dimethylpyridin-3-yl)methyl)-1-(3-cyanobenzyl)-1H-1,2,3-triazole-4-carboxamide] | 1800 nM
Cc1cc(N)nc(C)c1CNC(=O)c1sc(Cc2ccccc2)nc1C [Example 55, N-((6-amino-2,4-dimethylpyridin-3-yl)methyl)-2-benzyl-4-methylthiazole-5-carboxamide] | 6300 nM
Cc1cc(N)nc(C)c1CNC(=O)c1ncn(Cc2ccccc2)n1 [Example 56, N-((6-amino-2,4-dimethylpyridin-3-yl)methyl)-1-benzyl-1H-1,2,4-triazole-3-carboxamide] | 4400 nM
Cc1cncc(Oc2ccc(Cn3cc(C(=O)NCc4c(C)cc(N)nc4C)cn3)cc2)n1 [Example 57, N-((6-amino-2,4-dimethylpyridin-3-yl)methyl)-1-(4-(6-methylpyrazin-2-yloxy)benzyl)-1H-pyrazole-4-carboxamide] | 144 nM
Cc1cc(N)nc(C)c1CNC(=O)c1coc(Cc2ccccc2)n1 [Example 58, N-((6-amino-2,4-dimethylpyridin-3-yl)methyl)-2-benzyloxazole-4-carboxamide] | 3800 nM
Cc1cc(N)nc(C)c1CNC(=O)c1ncn(Cc2ccc(Cn3cncn3)cc2)n1 [Example 59] | 209 nM
COCCOc1cc(N)nc(C)c1CNC(=O)c1cnn(Cc2ccccc2)c1 [Example 60, N-((6-amino-4-(2-methoxyethoxy)-2-methylpyridin-3-yl)methyl)-1-benzyl-1H-pyrazole-4-carboxamide] | 379 nM
Cc1cc(N)nc(C)c1CNC(=O)c1ncn(Cc2ccc(-c3ccccc3)cc2)n1 [Example 61, N-((6-amino-2,4-dimethylpyridin-3-yl)methyl)-1-(biphenyl-4-ylmethyl)-1H-1,2,4-triazole-3-carboxamide] | 46 nM
Cc1cc(N)nc(C)c1CNC(=O)c1ncn(Cc2cccc3ccccc23)n1 [Example 62, N-((6-amino-2,4-dimethylpyridin-3-yl)methyl)-1-(naphthalen-1-ylmethyl)-1H-1,2,4-triazole-3-carboxamide] | 681 nM
Cc1cc(N)nc(C)c1CNC(=O)c1ncn(Cc2ccc(Oc3ccccc3)cc2)n1 [Example 63, N-((6-amino-2,4-dimethylpyridin-3-yl)methyl)-1-(4-phenoxybenzyl)-1H-1,2,4-triazole-3-carboxamide] | 11 nM
Cc1cc(N)nc(C)c1CNC(=O)c1ncn(Cc2ccc3ccccc3c2)n1 [Example 64, N-((6-amino-2,4-dimethylpyridin-3-yl)methyl)-1-(naphthalen-2-ylmethyl)-1H-1,2,4-triazole-3-carboxamide] | 14 nM
Cc1cc(N)nc(C)c1CNC(=O)c1cnn(Cc2ccc(N3CCCC3=O)cc2)c1 [Example 65, N-((6-amino-2,4-dimethylpyridin-3-yl)methyl)-1-(4-(2-oxopyrrolidin-1-yl)benzyl)-1H-pyrazole-4-carboxamide] | 29 nM
Cc1cc(N)nc(C)c1CNC(=O)c1ncn(Cc2ccc(-n3cccn3)cc2)n1 [Example 66, 1-(4-(1H-pyrazol-1-yl)benzyl)-N-((6-amino-2,4-dimethylpyridin-3-yl)methyl)-1H-1,2,4-triazole-3-carboxamide] | 325 nM
Cc1cc(N)nc(C)c1CNC(=O)c1ncn(Cc2cccc(-n3cccn3)c2)n1 [Example 67, 1-(3-(1H-pyrazol-1-yl)benzyl)-N-((6-amino-2,4-dimethylpyridin-3-yl)methyl)-1H-1,2,4-triazole-3-carboxamide] | 60 nM
Cc1cc(N)nc(C)c1CNC(=O)c1ncn(Cc2cccc(N3CCCC3)c2)n1 [Example 68, N-((6-amino-2,4-dimethylpyridin-3-yl)methyl)-1-(3-(pyrrolidin-1-yl)benzyl)-1H-1,2,4-triazole-3-carboxamide] | 34 nM
Cc1cc(N)nc(C)c1CNC(=O)c1cnn(Cc2ccnc(N3CCOCC3)c2)c1 [Example 69, N-((6-amino-2,4-dimethylpyridin-3-yl)methyl)-1-((2-morpholinopyridin-4-yl)methyl)-1H-pyrazole-4-carboxamide] | 1600 nM

Structure (SMILES) | IC50
Cc1cc(N)nc(C)c1CNC(=O)c1ccn(Cc2ccccc2)c1 [Example 70, N-((6-amino-2,4-dimethylpyridin-3-yl)methyl)-1-benzyl-1H-pyrrole-3-carboxamide] | 4100 nM
COCCc1cccc(Cn2cc(C(=O)NCc3c(C)cc(N)nc3C)cn2)c1 [Example 71, N-((6-amino-2,4-dimethylpyridin-3-yl)methyl)-1-(3-(2-methoxyethyl)benzyl)-1H-pyrazole-4-carboxamide] | 190 nM
Cc1cc(N)nc(C)c1CNC(=O)c1cc(C)n(S(=O)(=O)c2ccccc2)c1C [Example 72, N-((6-amino-2,4-dimethylpyridin-3-yl)methyl)-2,5-dimethyl-1-(Phenylsulfonyl)-1H-pyrrole-3-carboxamide] | 937 nM
COc1cc(Cn2cc(C(=O)NCc3c(C)cc(N)nc3C)cn2)cc(OC)c1 [Example 73, N-((6-amino-2,4-dimethylpyridin-3-yl)methyl)-1-(3,5-dimethoxybenzyl)-1H-pyrazole-4-carboxamide] | 114 nM
Cc1cn(S(=O)(=O)c2ccccc2)cc1C(=O)NCc1c(C)cc(N)nc1C [Example 74, N-((6-amino-2,4-dimethylpyridin-3-yl)methyl)-4-methyl-1-(phenylsulfonyl)-1H-pyrrole-3-carboxamide] | 595 nM
Cc1cc(N)nc(C)c1CNC(=O)c1cnn(Cc2ccc3[nH]c(C)c(C)c3c2)c1 [Example 75, N-((6-amino-2,4-dimethylpyridin-3-yl)methyl)-1-((2,3-dimethyl-1H-indol-5-yl)methyl)-1H-pyrazole-4-carboxamide] | 3.1 nM
Cc1cn(Cc2ccccc2)cc1C(=O)NCc1c(C)cc(N)nc1C [Example 76, N-((6-amino-2,4-dimethylpyridin-3-yl)methyl)-1-benzyl-4-methyl-1H-pa role-3-carboxamide] | 949 nM
Cc1nc(N)cc(OCC(N)=O)c1CNC(=O)c1cnn(Cc2ccccc2)c1 [Example 77, N-((6-amino-4-(2-amino-2-oxoethoxy)-2-methylpyridin-3-yl)methyl)-1-benzyl-1H-pyrazole-4-carboxamide] | 72 nM
Cc1cc(N)nc(C)c1CNC(=O)c1coc(Oc2ccccc2)n1 [Example 78, N-((6-amino-2,4-dimethylpyridin-3-yl)methyl)-2-phenoxyoxazole-4-carboxamide] | 10100 nM
Cc1cc(N)nc(C)c1CNC(=O)c1cnn(Cc2ccc(OC(F)(F)F)cc2)c1 [Example 80, N-((6-amino-2,4-dimethylpyridin-3-yl)methyl)-1-(4-(trifluoromethoxy)benzyl)-1H-pyrazole-4-carboxamide] | 117 nM
Cc1cc(N)nc(C)c1CNC(=O)c1cnn(Cc2cccc(C#N)c2)c1 [Example 81, N-((6-amino-2,4-dimethylpyridin-3-yl)methyl)-1-(3-cyanobenzyl)-1H-pyrazole-4-carboxamide] | 411 nM
Cc1cc(N)nc(C)c1CNC(=O)c1cnn(Cc2ccc(C#N)cc2)c1 [Example 82, N-((6-amino-2,4-dimethylpyridin-3-yl)methyl)-1-(4-cyanobenzyl)-1H-pyrazole-4-carboxamide] | 678 nM
Cc1cc(N)nc(C)c1CNC(=O)c1cnn(Cc2ccc3ccccc3c2)c1 [Example 83, N-((6-amino-2,4-dimethylpyridin-3-yl)methyl)-1-(naphthalen-2-ylmethyl)-1H-pyrazole-4-carboxamide] | 18 nM
Cc1cc(N)nc(C)c1CNC(=O)c1cnn(Cc2cccc(F)c2)c1 [Example 84, N-((6-amino-2,4-dimethylpyridin-3-yl)methyl)-1-(3-fluorobenzyl)-1H-pyrazole-4-carboxamide] | 498 nM
Cc1nc(N)ccc1CNC(=O)c1cnn(Cc2ccccc2)c1 [Example 85, N-((6-amino-2-methylpyridin-3-yl)methyl)-1-benzyl-1H-pyrazole-4-carboxamide] | 4100 nM
Cc1cccc(Cn2cc(C(=O)NCc3c(C)cc(N)nc3C)cn2)n1 [Example 86, N-((6-amino-2,4-dimethylpyridin-3-yl)methyl)-1-((6-methylpyridin-2-yl)methyl)-1H-pyrazole-4-carboxamide] | 7500 nM
Cc1cc(N)nc(C)c1CNC(=O)c1cnn(Cc2ccccc2Cl)c1 [Example 87, N-((6-amino-2,4-dimethylpyridin-3-yl)methyl)-1-(2-chlorobenzyl)-1H-pyrazole-4-carboxamide] | 1300 nM
Cc1cc(N)nc(C)c1CNC(=O)c1cnn(CC2CCCCC2)c1 [Example 88, N-((6-amino-2,4-dimethylpyridin-3-yl)methyl)-1-(cyclohexylmethyl)-1H-pyrazole-4-carboxamide] | 1800 nM
Cc1cc(N)nc(C)c1CNC(=O)c1cnn(Cc2ccc(COc3ccccc3)cc2)c1 [Example 89, N-((6-amino-2,4-dimethylpyridin-3-yl)methyl)-1-(4-(Phenoxymethyl)benzyl)-1H-pyrazole-4-carboxamide] | 6 nM
Cc1cc(N)nc(C)c1CNC(=O)c1cnn(Cc2ccc(F)c(F)c2)c1 [Example 90, N-((6-amino-2,4-dimethylpyridin-3-yl)methyl)-1-(3,4-difluorobenzyl)-1H-pyrazole-4-carboxamide] | 2000 nM
